What was measured:
[1] = system: DNFB-induced ear swelling; assay: Mouse model of ear swelling induced by DNFB; assay type: in vivo, C57BL/6J mice; conditions: topical 0.1, 1, 10 mM on right ear for 4 days, vs DNFB alone
Procedure: Mice were placed in a gas anesthesia device (SurgiVet) for anesthesia before the hair on the back was removed with a razor, followed by the application of an appropriate amount of hair removal cream to gently shave off the remaining hair. For generation of atopic dermatitis and ear swelling, chemical skin sensitizer DNFB (1-Fluoro-2,4-dinitrobenzene), commonly known as Sanger’s Reagent, was dissolved in a solvent (acetone/olive oil = 4/1, v/v) and 0.5% DNFB in 100 μl was applied once topically to the back and right ear for skin sensitization 1 day after acclimatization for hair removal ([43]) without any treatment for next 3 days. On the fifth and sixth days, 0.2% DNFB in 50 μl was applied topically once a day for 2 days for challenge before different concentrations of flopropione in 100 μl were topically applied once a day for four consecutive days. […]
(§1) The score contents and criteria include (1): skin erythematous/bleeding (2), skin scratches/erosion (3), skin edema (4), skin scaling or lichenoid change ([44]). Each symptom was scored from 0 to 3 (none, 0; mild, one; moderate, two; severe, (3). The final score was defined as the sum of individual scores on a scale from 0 to 12. Mouse ear thickness was measured once a day for continuous 5 days with the first measurement of ear thickness 30 min after the last application of 0.2% DNFB using vernier caliper.

hTRPV3 I505A mutant = biological target: T1, hTRPV3 I505A mutant (Homo sapiens, UniProt Q8NET8, I505A); assay: Whole-cell recordings of TRPV3 I505A mutant; assay type: cell-based; conditions: 100 μM flopropione, 2-APB
T1 construct: expressed in transfected cells; host or cells: HEK293
T1 sequence (Q8NET8 1-790 I505A): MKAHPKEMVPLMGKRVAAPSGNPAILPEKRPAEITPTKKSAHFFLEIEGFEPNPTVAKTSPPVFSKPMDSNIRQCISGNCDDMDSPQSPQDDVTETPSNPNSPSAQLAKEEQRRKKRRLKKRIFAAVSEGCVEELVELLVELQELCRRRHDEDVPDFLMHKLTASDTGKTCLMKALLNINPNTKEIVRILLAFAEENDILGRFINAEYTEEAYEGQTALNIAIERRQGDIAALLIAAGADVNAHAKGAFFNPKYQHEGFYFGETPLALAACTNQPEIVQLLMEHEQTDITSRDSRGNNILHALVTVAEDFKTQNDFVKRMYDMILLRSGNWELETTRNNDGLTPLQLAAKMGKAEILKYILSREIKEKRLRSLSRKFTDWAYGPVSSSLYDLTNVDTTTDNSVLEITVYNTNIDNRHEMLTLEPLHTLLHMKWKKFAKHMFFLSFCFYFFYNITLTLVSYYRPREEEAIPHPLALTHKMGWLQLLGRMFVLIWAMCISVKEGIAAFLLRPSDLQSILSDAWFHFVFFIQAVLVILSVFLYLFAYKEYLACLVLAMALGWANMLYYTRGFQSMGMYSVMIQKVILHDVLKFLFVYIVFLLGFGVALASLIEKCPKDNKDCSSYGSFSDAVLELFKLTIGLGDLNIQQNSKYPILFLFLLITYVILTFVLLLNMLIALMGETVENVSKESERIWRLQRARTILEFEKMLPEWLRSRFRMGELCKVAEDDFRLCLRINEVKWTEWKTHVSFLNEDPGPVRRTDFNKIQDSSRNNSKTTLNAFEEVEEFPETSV
Procedure: (§2) HEK293 cells were cultured in Dulbecco’s modified Eagle’s medium (DMEM, Gibco) containing 4.5 g/L D-glucose supplemented with 10% fetal bovine serum based at 37 °C with 5% CO2. For whole-cell patch-clamp recordings, cells were grown in glass coverslips for 24 h before transient transfections with 3000 ng cDNAs of hTRPV3 (gene accession number BC104866.1), hTRPV1 (accession number NM_080704.3), mTRPV2 (accession number NM_011706.2), hTRPV4 (accession number NM_021625.5), hTRPA1 (accession number NM_007332.3) and hTRPM8 (accession number NM_024080.5) into HEK293 cells grown in a 35-mm cell culture dish using Lipofectamine 2000 (Invitrogen). Cells were used 18 ∼ 24 h after transfection. All WT or mutant hTRPV3 plasmids were validated by DNA sequencing.
(§3) Whole-cell patch clamp recordings of wild-type and mutants were carried out at room temperature using the HEKA EPC10 amplifier powered by PatchMaster software (HEKA) or MultiClamp 700B amplifier driven by Clampex 11.0.3 software. The borosilicate glass pipettes were pulled and fire-polished to 3∼6 MΩ using a DMZ universal electrode puller (Zeitz-Instruments, GmbH). Pipette solution and bath solution both contained (in mM): 130 NaCl, three HEPES, and 0.2 EDTA (pH = 7.4). Cell membrane potential was held at 0 mV, currents were recorded at a voltage ramp from −100 to +100 mV for 500-ms and analyzed at ±80 mV.

hTRPV1 = biological target: T2, hTRPV1 (Homo sapiens, UniProt Q8NER1); assay: Whole-cell patch-clamp of TRPV1 currents evoked by capsaicin in HEK293 cells; assay type: cell-based; conditions: flopropione 100 μM, 1 μM capsaicin
T2 construct: expressed in transfected cells; host or cells: HEK293
Procedure: as §2, §3

[2] = system: DNFB-induced dorsal skin inflammation; assay: Mouse model of dorsal skin inflammation (atopic dermatitis) induced by DNFB; assay type: in vivo, C57BL/6J mice
Procedure: Mice were placed in a gas anesthesia device (SurgiVet) for anesthesia before the hair on the back was removed with a razor, followed by the application of an appropriate amount of hair removal cream to gently shave off the remaining hair. For generation of atopic dermatitis and ear swelling, chemical skin sensitizer DNFB (1-Fluoro-2,4-dinitrobenzene), commonly known as Sanger’s Reagent, was dissolved in a solvent (acetone/olive oil = 4/1, v/v) and 0.5% DNFB in 100 μl was applied once topically to the back and right ear for skin sensitization 1 day after acclimatization for hair removal ([43]) without any treatment for next 3 days. On the fifth and sixth days, 0.2% DNFB in 50 μl was applied topically once a day for 2 days for challenge before different concentrations of flopropione in 100 μl were topically applied once a day for four consecutive days. First application of topical flopropione started half an hour after the last application of 0.2% DNFB challenge. For the effect of flopropione on skin inflammation, topical flopropione (0.1 mM, 1 mM or 10 mM) in 100 μl was applied into ear and shaved area of dorsal skin by swabbing once a day for four consecutive days.
as §1
Mice were anesthetized with 1.0% isoflurane before sacrifice 24 h after the last treatment ([31], [32], [43]). Mouse dorsal skin was removed with scissors and forceps before fixed with 4% paraformaldehyde. Paraffin-embedded tissues were sectioned and stained with hematoxylin and eosin. Stained sections were observed using bright-field microscopy (ECLIPSE Ti-S, Nikon) and CCD-camera (DS-Ri2, Nikon).

T2 sequence (Q8NER1 whole entry): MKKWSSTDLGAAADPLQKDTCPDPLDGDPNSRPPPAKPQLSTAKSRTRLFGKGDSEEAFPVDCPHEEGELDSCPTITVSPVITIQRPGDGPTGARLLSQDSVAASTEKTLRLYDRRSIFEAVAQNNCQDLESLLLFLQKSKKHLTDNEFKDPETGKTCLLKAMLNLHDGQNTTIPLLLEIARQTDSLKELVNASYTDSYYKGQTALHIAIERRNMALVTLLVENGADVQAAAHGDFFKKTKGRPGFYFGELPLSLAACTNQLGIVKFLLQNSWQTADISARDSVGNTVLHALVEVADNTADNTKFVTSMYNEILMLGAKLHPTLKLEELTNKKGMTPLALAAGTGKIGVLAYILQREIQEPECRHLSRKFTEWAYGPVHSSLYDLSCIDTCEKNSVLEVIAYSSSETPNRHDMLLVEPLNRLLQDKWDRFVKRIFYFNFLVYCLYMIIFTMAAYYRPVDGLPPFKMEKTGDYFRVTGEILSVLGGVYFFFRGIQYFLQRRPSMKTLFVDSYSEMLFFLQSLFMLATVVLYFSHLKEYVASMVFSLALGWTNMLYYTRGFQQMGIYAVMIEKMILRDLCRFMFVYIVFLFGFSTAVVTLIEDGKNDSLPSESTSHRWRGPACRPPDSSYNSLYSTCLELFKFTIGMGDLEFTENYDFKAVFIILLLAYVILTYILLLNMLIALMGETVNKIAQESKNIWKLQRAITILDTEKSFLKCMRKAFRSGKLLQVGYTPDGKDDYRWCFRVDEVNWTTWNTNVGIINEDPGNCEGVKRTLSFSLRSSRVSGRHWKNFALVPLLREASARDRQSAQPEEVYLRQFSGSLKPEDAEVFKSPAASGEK

effect of I505 mutation on inhibition by flopropione (hTRPV3 I505A mutant): partially reduced TRPV3 inhibition | effect on TRPV1 currents (hTRPV1): no effect
SMILES: CCC(=O)c1c(O)cc(O)cc1O [flopropione]
ear swelling (ear thickness, vernier caliper) [1]: significantly reduced ear swelling | dorsal skin inflammation (phenotype) ([2]; topical 0.1–10 mM, once a day for 4 days, vs DNFB alone): alleviated the skin inflammation in concentration-dependent manner | dermatitis scores ([2]; topical 0.1–10 mM, vs DNFB alone group, n = 5): significantly reduced the dermatitis scores | skin hyperkeratosis and lesion (histology, dorsal skin thickness) ([2]; topical 0.1 ∼ 10 mM, H&E sections, vs DNFB alone): reduced mouse skin hyperkeratosis and lesion
